Measurements: paper PMC5500849, “Cobamide-mediated enzymatic reductive dehalogenation via long-range electron transfer” (Nature Communications, 2017)
Values belong to the compound of their own block, whether it stands above or below them.

What was measured:
PceA (PceA–Strep) [1] = target: T1, PceA (PceA–Strep) (Sulfurospirillum multivorans, UniProt O68252); assay: crystal structure, soaked crystal; type: binding; conditions: [Co(II)] state
T1 construct: C-terminal Strep-tag II, homologously produced in S. multivorans GD21 (genomic pceAB), Strep-Tactin purified; crystals from mature enzyme (Tat signal peptide removed); holo with norpseudo-B12 and two [4Fe-4S] clusters

PceA (PceA–Strep) [2] = target: T1, PceA (PceA–Strep); assay: inhibition of 4-BP dehalogenation; type: biochemical; conditions: 47 nM enzyme, dark 2 min; covalent, alkylates cobamide [Co(I)], reversed by light

T1 sequence (O68252 38-501): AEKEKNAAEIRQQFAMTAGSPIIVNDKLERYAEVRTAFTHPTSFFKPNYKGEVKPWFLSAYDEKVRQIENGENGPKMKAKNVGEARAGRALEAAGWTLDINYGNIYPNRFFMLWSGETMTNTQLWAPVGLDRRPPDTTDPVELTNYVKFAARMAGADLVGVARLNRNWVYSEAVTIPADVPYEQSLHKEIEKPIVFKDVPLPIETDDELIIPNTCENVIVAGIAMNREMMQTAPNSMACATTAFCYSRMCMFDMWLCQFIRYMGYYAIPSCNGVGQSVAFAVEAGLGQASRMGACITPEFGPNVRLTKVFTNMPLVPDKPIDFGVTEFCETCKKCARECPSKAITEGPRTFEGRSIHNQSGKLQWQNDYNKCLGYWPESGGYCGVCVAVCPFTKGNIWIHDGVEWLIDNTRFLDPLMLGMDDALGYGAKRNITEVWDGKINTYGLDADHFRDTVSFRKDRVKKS

crystal structure, soaked crystal (PceA (PceA–Strep) [1]; enzyme with methoxybenzimidazolyl-norcobamide instead of norpseudo-B12): 5MAA (3-BP)
SMILES: Oc1cccc(Br)c1 [3-BP]

SMILES: Oc1cccc(Cl)c1 [3-CP]
crystal structure, soaked crystal (PceA (PceA–Strep) [1]; active site, not dehalogenated): 5M8Y (3-CP)

SMILES: Oc1ccc(Cl)cc1 [4-CP]
crystal structure, soaked crystal (PceA (PceA–Strep) [1]; active site, not dehalogenated): 5M8W (4-CP)

SMILES: Oc1ccc(I)cc1 [4-IP]
crystal structure, soaked crystal (PceA (PceA–Strep) [1]; active site, also surface groove site): 5MA2 (4-IP)

SMILES: CCCI [propyl iodide]
complete inhibition at 100 μM (PceA (PceA–Strep) [2]): complete inhibition of the PceA-mediated 4-BP dehalogenation by propyl iodide in the dark
